We go through two compounds from patent US11306117B2, “Whitening composition containing novel quercetin-based compound” (AMOREPACIFIC CORPORATION, priority 2017, dated 2022).

One assay deals with mushroom tyrosinase. The assay can be described thus: Inhibition of tyrosinase activity. The following applies: L-tyrosine, 37° C., 20 minutes, absorbance 490 nm. It is filed as biochemical. As for the experimental part:
The effect of New Materials 31 and 32 on inhibiting tyrosinase activity was evaluated.
Specifically, tyrosinase and tyrosine derived from mushroom were obtained from Sigma Chemical. Together with 150 μl of 0.1 M phosphate buffer (pH 6.5), 8 μl of mushroom tyrosinase (2,100 unit/ml) and 0.05 M concentration of L-tyrosine, arbutin and New Materials 31 and 32 were treated at the concentrations of following Table 3, respectively. The tyrosinase activity was evaluated by performing the enzyme reaction at 37° C. for 20 minutes and then measuring absorbance at 490 nm using a microplate reader (Bio-Rad 3550, Richmond, Calif., U.S.A.).

The next assay relates to Mel-Ab cell line. The assay can be described thus: Inhibition of melanogenesis in Mel-Ab cells (method of Dooley). It is filed as cell-based, C57BL/6. The following applies: melanin by absorbance at 400 nm after 5 days. As for the experimental part: The effects of New Materials 31 and 32 on inhibiting melanogenesis were compared with Kojic acids which have been known to have an excellent skin whitening effect, and measured.
Specifically, the degree of melanogenesis in cells was measured by a method of Dooley. As the cell line, Mel-Ab cell line (Falcon, U.S.A.) derived from a skin pigment of C57BL/6 was used. Culturing was made under the condition of 37° C., 5% CO2 of a DMEM medium containing 10% placenta serum, 100 nM 12-O-tetradecanoylphorbol-13-acetate, and 1 nM Cholera Toxin. The test materials were treated in the manner where the cultured Mel-Ab cell was isolated with 0.25% trypsin-EDTA, and inoculated again with the same number (1×10^5 cells/well) in the 24-well plate, and then the medium was replaced with a medium containing the test materials for two days from the second day. As the test materials, 5 ppm, 10 ppm, 25 ppm and 50 ppm of New Materials 31 and 32, 25 ppm, 50 ppm and 100 ppm of Kojic acids and DMSO (control) were used. After 5 days, the test materials were treated with 1N-NaOH to dissolve melanin contained in the cell, and the amount of melanin was measured by measuring absorbance at 400 nm. The concentration (IC50) of the material necessary for reducing melanogenesis of melanocyte by half was calculated, and the results are shown in following Table 4.

`OC[C@H]1O[C@@H](Oc2ccc(O)cc2)[C@H](O)[C@@H](O)[C@@H]1O` [Arbutin, arbutin, reference compound]: the “IC50 inhibiting tyrosinase activity” value against mushroom tyrosinase is 149 ppm.
For `O=c1cc(CO)occ1O` [Kojic acids, reference compound], the IC50 inhibiting melanogenesis in the assay on Mel-Ab cell line amounted to 39.36 ppm.
